Counter-ions that a name gives are not always drawn.
Assays:
[1] = test system: patients with COPD; assay: Double-blind, randomized, positive control trial: treatment-emergent adverse events (safety/tolerability); settings: percent of patients; for (%) Patients with A (adverse events): any adverse event
Description: (§1) To evaluate the efficacy and safety of the inhalation solution of the present invention, a double-blind, randomized, positive control trial was performed.
(§2) All study medications were administered 4 times per day (ideally every 6 hours) by inhalation using a PARI LC PLUS™ nebulizer and PARI PRONEB® compressor. Concomitant use of bronchodilators was restricted during the trial. Oral and inhaled steroic use was permitted throughout the trial, provided that dosing remained constant.

[2] = test system: patients with COPD; assay: Double-blind, randomized, positive control trial: FEV1 response (efficacy); assay type: in vivo, human; settings: Crossover phase, nebulized 4 times per day
Description: as §1, §2

`CC(C)[N+]1(C)C2CCC1CC(OC(=O)C(CO)c1ccccc1)C2` (racemic) [Ipratropium, 8-azoniabicyclo [3.2.1]-octane, 3-(3, hydroxyl-1-oxo-2-phenylpropoxy)-8methyl-8-(1-methylethyl)-bromide, monohydrate, (endo, syn)-, (±)-] was tested, and the “Bronchitis (RESPIRATORY), %” value [1] was “(1.7) %”, the “Cramps leg (MUSCULO-SKELETAL), %” value [1] was “(0.8) %” and the “Diarrhea (DIGESTIVE), %” value [1] was “(1.2) %”. For the same compound, the “Dyspepsia (DIGESTIVE), %” value [1] was “(1.1) %”, the “Infection urinary tract (UROGENITAL), %” value [1] was “(1.2) %” and the “Lung Disease (RESPIRATORY), %” value [1] was “(4.5) %”. The “Nausea (DIGESTIVE), %” value [1] was “(0.8) %”, the “Pain (BODY AS A WHOLE), %” value [1] was “(0.5) %” and the “Pain chest (BODY AS A WHOLE), %” value [1] was “(1.9) %”. The “Pharyngitis (RESPIRATORY), %” value [1] was “(3.6) %”, the “Pneumonia (RESPIRATORY), %” value [1] was “(1.1) %” and the “(%) Patients with A (adverse events)” value [1] was “(43.6) %”. For the same compound, the “Peak FEV1 mean (change from pre-dose to peak FEV1 within 3 hours after dosing)” value ([2]; Combination vs. Ipratropium comparison) was 0.282 L.
For `CC(C)(C)NCC(O)c1ccc(O)c(CO)c1` (stereo not drawn) [Albuterol, α^1-[(tert-butylamino)methyl]-4-hydroxy-m-xylene-α,α′-diol sulfate (2:1)(salt)], the “Bronchitis (RESPIRATORY), %” value [1] was “(1.4) %”, the “Cramps leg (MUSCULO-SKELETAL), %” value [1] was “(1.1) %” and the “Diarrhea (DIGESTIVE), %” value [1] was “(0.7) %”. For the same compound, the “Dyspepsia (DIGESTIVE), %” value [1] was “(0.9) %”, the “Infection urinary tract (UROGENITAL), %” value [1] was “(0.4) %” and the “Lung Disease (RESPIRATORY), %” value [1] was “(4.7) %”. For the same compound, the “Nausea (DIGESTIVE), %” value [1] was “(0.9) %”, the “Pain (BODY AS A WHOLE), %” value [1] was “(1.1) %” and the “Pain chest (BODY AS A WHOLE), %” value [1] was “(1.4) %”. The “Pharyngitis (RESPIRATORY), %” value [1] was “(3.5) %”, the “Pneumonia (RESPIRATORY), %” value [1] was “(0.9) %” and the “(%) Patients with A (adverse events)” value [1] was “(43.0) %”. The “Peak FEV1 mean (change from pre-dose to peak FEV1 within 3 hours after dosing)” value ([2]; Combination vs. Albuterol comparison) was 0.313 L.
